Reference: patent publication US8097637B2, “Benzoyl-piperidine derivatives as dual modulators of the 5-HT2A and D3 receptors” (Hoffmann-La Roche Inc., priority 2007, dated 2012)

Legend:
[1] = molecular target: T1, human D3 dopamine receptor (Homo sapiens, UniProt P35462); test: Radioligand binding ([3H]-spiperone) to cloned human D3 receptor, HEK-293 EBNA cell membranes; conditions: 0.5 nM [3H]-spiperone, 1 h at RT, Cheng-Prusoff
T1 construct: expressed in transfected cells; host or cells: HEK-293 EBNA cells, transient transfection; membrane preparation
Description: The ability of the compounds to bind to the 5-HT2A, D3 and D2 receptors was determined using radioligand binding to cloned receptors selectively expressed in HEK-293 EBNA cells.
(§1) Membrane Preparation for Human D2, Human D3 and Human 5-HT2A Receptors
(§2) HEK-293 EBNA cells were transiently transfected with expression plasmids encoding for the human D2 or D3 dopamine- or for the human 5-HT2A serotonin receptor, respectively. The cells were harvested 48 h post-transfection, washed three times with cold PBS and stored at −80° C. prior to use. The pellet was suspended in cold 50 mM Tris-HCl buffer containing 10 mM EDTA (pH 7.4) and homogenized with a Polytron (Kinematica AG, Basel, Switzerland) for 20-30 sec at 12.000 rpm. After centrifugation at 48.000×g for 30 min at 4° C., the pellet was resuspended in cold 10 mM Tris-HCl buffer containing 0.1 mM EDTA (pH 7.4), homogenized, and centrifuged as above. This pellet was further resuspended in a smaller volume of ice cold 10 mM Tris-HCl buffer containing 0.1 mM EDTA (pH 7.4) and homogenized with a Polytron for 20-30 sec at 12.000 rpm. The protein content of this homogenate was determined with the Bio-Rad (Bradford) Protein Assay (Biorad Laboratories GmbH, München, Germany) according to the instructions of the manufacturer using gamma globulin as the standard. This homogenate was stored at −80° C. in aliquots and thawed immediately prior to use.
(§3) Radioligand Binding Assay Conditions
(§4) Aliquots of membrane preparations were thawed at RT, resuspended in assay buffer (D2, D3: 50 mM Tris-HCl, 120 mM NaCl, 5 mM MgCl2, 1 mM EDTA, 5 mM KCl, 1.5 mM CaCl2, pH=7.4; 5-HT2A: 50 mM Tris-HCl, 10 mM MgCl2, 1 mM EGTA, pH=7.4), homogenized with a Polytron for 20-30 sec at 12.000 rpm and adjusted to a final concentration of approximately 7.5 μg protein/well (D2, D3) and 15 μg protein/well (5-HT2A), respectively.
(§5) The binding affinity (Ki) of the compounds was determined using radioligand binding. Membranes were incubated in a total volume of 200 μl with a fixed concentration of radioligand (final concentration approximately 0.7 nM [^3H]-spiperone for D2, 0.5 nM [^3H]-spiperone for D3, and 1.1 nM [^3H]-ketanserin for 5-HT2A) and ten concentrations of test compound in ranging between 10 μM-0.1 nM for 1 h at RT. At the end of the incubation, the reaction mixtures were filtered on to unifilter 96-well white microplates with bonded GF/C filters (Packard BioScience, Zürich, Switzerland; preincubated for 1 h in 0.1% polyethylenimine (PEI) in assay buffer) with a Filtermate 196 harvester (Packard BioScience) and washed 3 times with cold assay buffer. The nonspecific binding was determined with equally composed reaction mixtures in the presence of 10 μM unlabeled spiperone. Per well 45 μl of Microscint 40 (Perkin Elmer, Schwerzenbach, Switzerland) was added, plates for sealed, shaken for 20 min and counted for 3 min on a Topcount Microplate Scintillation Counter (Canberra Packard SA, Zürich, Switzerland) with quenching correction.
(§6) The CPM value for each duplicate of a concentration of competing compound was averaged (yl), then the % specific binding was calculated according to the equation (((yl-non-specific)/(total binding-non-specific))×100). Graphs were plotted with the % specific binding using XLfit, a curve fitting program that iteratively plots the data using Levenburg Marquardt algorithm. The single site competition analysis equation used was y=A+((B−A)/(1+((x/C)^D))), where y is the % specific binding, A is the minimum y, B is the maximum y, C is the IC50, x is the log10 of the concentration of the competing compound and D is the slope of the curve (the Hill Coefficient). […] The affinity constant (Ki) was calculated using the Cheng-Prusoff equation Ki=(IC50/1+([L]/Kd), where [L] is the concentration of radioligand and Kd is the dissociation constant of the radioligand at the receptor as determined by the saturation isotherm.

[2] = molecular target: T2, human 5-HT2A serotonin receptor (Homo sapiens, UniProt P28223); test: Radioligand binding ([3H]-ketanserin) to cloned human 5-HT2A receptor, HEK-293 EBNA cell membranes; conditions: 1.1 nM [3H]-ketanserin, 1 h at RT, Cheng-Prusoff
T2 construct: expressed in transfected cells; host or cells: HEK-293 EBNA cells, transient transfection; membrane preparation
Description: as §1
as §2, with “The” for “HEK-293 EBNA cells were transiently transfected with expression plasmids encoding for the human D2 or D3 dopamine- or for the human 5-HT2A serotonin receptor, respectively. The”
as §3, §4
The binding affinity (Ki) of the compounds was determined using radioligand binding. […] The nonspecific binding was determined with equally composed reaction mixtures in the presence of 10 μM unlabeled spiperone. Per well 45 μl of Microscint 40 (Perkin Elmer, Schwerzenbach, Switzerland) was added, plates for sealed, shaken for 20 min and counted for 3 min on a Topcount Microplate Scintillation Counter (Canberra Packard SA, Zürich, Switzerland) with quenching correction.
as §6

[3] = molecular target: T3, human D2 dopamine receptor (Homo sapiens, UniProt P14416); test: Radioligand binding ([3H]-spiperone) to cloned human D2 receptor, HEK-293 EBNA cell membranes; conditions: 0.7 nM [3H]-spiperone, 1 h at RT, Cheng-Prusoff
T3 construct: expressed in transfected cells; host or cells: HEK-293 EBNA cells, transient transfection; membrane preparation
Description: as §1, §2, §3, §4, §5, §6

T1 sequence (P35462 whole entry): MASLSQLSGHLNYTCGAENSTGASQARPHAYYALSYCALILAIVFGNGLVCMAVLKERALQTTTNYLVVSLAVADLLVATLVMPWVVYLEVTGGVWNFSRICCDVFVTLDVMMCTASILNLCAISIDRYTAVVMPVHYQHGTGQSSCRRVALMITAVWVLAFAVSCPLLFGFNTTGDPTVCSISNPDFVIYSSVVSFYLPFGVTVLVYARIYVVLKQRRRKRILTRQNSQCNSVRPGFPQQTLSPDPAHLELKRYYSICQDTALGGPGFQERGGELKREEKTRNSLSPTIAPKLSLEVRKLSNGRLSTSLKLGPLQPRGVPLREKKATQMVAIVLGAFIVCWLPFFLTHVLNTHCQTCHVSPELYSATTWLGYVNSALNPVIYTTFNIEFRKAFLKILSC
T2 sequence (P28223 whole entry): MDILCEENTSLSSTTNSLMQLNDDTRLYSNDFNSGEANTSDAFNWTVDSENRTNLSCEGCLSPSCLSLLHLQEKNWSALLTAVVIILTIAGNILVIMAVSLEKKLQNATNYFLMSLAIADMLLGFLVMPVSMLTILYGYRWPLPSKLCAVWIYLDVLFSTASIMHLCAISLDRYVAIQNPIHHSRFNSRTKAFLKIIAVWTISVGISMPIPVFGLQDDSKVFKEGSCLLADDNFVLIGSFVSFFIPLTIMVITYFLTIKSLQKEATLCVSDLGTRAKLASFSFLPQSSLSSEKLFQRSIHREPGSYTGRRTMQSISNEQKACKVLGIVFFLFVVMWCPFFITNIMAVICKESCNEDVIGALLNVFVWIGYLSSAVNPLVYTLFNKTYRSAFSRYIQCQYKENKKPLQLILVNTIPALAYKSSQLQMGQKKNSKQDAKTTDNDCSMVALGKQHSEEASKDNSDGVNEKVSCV
T3 sequence (P14416 whole entry): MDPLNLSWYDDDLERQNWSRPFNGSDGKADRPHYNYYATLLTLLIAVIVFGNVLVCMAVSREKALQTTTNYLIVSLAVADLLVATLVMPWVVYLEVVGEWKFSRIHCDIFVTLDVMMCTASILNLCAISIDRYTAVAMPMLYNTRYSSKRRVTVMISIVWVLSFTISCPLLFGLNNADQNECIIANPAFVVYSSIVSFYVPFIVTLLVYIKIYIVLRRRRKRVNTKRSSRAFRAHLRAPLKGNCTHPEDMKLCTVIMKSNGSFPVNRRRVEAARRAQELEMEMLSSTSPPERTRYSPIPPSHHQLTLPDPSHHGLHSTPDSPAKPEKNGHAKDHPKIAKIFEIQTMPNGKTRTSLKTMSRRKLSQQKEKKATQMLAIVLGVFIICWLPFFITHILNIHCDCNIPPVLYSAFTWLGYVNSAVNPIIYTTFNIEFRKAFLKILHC

**Q.** How did the Ki [1] turn out when `CC(=O)N[C@H]1CC[C@H](CC(=O)N[C@H]2CC[C@H](CCN3CCC(C(=O)c4ccc(F)cc4)CC3)CC2)CC1` [Example 27, 2-trans (4-Acetylamino-cyclohexyl)-N-trans-(4-{2-[4-(4-fluoro-benzoyl)-piperidin-1-yl]-ethyl}-cyclohexyl)-acetamide] was run?
**A.** The Ki was 44 nM.

**Q.** And the Ki [2]?
**A.** Its Ki is 34 nM.

**Q.** What about the Ki [3] of the same compound?
**A.** Its Ki is 2070 nM.
